# Assay results reported in ChEMBL document CHEMBL5291721, “A preclinical secondary pharmacology resource illuminates target-adverse drug reaction associations of marketed drugs” (Nat Commun, 2023).
# Several values for one entry are separate records, joined by “and”; a condition that tells them apart may be missing. Equal entries are not always repeated.
# Legend:
# [1] = target: Growth hormone secretagogue receptor type 1 (Homo sapiens, UniProt Q92847)
# D(3) dopamine receptor = D(3) dopamine receptor (Homo sapiens, UniProt P35462)
# Chain of D(3) dopamine receptor (P35462 whole entry): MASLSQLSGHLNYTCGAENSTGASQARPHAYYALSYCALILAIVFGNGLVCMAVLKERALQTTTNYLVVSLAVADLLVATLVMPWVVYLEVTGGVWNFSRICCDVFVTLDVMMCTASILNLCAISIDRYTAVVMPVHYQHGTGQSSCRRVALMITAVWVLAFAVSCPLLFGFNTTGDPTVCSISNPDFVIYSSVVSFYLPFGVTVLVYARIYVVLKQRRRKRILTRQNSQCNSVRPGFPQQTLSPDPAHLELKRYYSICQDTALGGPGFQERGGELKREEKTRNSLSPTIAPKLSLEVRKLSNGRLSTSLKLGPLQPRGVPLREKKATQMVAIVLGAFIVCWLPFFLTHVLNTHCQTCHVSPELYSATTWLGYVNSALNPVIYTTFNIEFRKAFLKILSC
# Endothelin-1 receptor = target: T1, Endothelin-1 receptor (Homo sapiens, UniProt P25101)
# T1 sequence (P25101 whole entry): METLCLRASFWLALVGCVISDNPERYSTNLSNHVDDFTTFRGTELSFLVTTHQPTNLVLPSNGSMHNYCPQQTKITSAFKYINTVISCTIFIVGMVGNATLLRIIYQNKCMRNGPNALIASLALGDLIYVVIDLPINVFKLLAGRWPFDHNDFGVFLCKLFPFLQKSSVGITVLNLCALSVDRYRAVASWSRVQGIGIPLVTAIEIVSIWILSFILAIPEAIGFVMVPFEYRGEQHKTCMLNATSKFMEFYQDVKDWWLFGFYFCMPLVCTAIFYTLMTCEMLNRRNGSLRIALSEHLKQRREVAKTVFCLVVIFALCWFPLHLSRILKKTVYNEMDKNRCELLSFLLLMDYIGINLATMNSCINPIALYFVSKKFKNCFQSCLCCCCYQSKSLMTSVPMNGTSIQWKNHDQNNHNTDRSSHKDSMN
# [2] = target: 3',5'-cyclic-AMP phosphodiesterase 4D (Homo sapiens, UniProt Q08499); type: functional
# Chain of 3',5'-cyclic-AMP phosphodiesterase 4D (Q08499 whole entry): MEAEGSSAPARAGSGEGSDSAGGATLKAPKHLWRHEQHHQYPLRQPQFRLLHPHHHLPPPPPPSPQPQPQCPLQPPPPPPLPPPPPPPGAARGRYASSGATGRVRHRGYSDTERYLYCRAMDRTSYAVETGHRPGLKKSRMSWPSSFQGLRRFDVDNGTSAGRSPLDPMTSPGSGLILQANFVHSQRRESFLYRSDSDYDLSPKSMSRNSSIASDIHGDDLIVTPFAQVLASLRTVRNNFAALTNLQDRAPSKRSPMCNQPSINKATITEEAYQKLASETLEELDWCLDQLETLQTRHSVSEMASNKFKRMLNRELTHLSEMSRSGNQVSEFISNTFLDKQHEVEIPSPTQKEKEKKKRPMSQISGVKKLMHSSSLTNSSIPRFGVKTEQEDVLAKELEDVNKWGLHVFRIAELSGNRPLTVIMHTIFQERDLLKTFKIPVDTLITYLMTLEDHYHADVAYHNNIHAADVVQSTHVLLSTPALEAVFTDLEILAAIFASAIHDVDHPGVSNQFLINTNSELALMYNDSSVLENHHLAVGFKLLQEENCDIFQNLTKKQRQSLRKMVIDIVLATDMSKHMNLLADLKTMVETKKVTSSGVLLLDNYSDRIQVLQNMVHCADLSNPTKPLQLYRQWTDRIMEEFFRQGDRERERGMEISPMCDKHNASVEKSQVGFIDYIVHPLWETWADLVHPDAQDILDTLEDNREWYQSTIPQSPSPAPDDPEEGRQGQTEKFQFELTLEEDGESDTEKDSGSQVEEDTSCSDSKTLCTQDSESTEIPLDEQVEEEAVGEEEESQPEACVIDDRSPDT
# Adenosine receptor A3 = target: T2, Adenosine receptor A3 (Homo sapiens, UniProt P0DMS8)
# T2 sequence (P0DMS8 whole entry): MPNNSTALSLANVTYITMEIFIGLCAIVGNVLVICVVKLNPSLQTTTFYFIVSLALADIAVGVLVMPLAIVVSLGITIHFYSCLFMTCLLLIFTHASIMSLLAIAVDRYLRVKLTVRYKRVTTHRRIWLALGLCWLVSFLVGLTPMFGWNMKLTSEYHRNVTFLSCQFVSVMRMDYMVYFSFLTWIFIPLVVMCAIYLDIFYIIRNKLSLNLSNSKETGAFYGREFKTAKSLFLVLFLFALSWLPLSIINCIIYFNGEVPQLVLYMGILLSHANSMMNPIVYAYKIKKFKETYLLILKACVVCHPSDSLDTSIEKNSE
# [3] = target: T3, Cholecystokinin receptor type A (Homo sapiens, UniProt P32238)
# T3 sequence (P32238 whole entry): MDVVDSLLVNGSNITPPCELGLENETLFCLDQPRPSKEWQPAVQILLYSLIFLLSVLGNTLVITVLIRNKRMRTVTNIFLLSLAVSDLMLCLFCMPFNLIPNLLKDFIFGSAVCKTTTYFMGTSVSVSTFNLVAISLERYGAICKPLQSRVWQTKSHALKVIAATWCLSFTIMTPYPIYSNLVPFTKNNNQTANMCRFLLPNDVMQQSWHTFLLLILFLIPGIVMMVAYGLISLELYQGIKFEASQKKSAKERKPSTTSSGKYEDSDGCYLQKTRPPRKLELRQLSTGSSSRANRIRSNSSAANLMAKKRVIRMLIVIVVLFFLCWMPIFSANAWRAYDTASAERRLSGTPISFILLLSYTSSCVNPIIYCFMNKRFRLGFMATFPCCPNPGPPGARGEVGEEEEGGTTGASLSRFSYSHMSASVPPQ
# [4] = target: T4, Muscarinic acetylcholine receptor M2 (Homo sapiens, UniProt P08172); type: functional, cell-based
# T4 sequence (P08172 whole entry): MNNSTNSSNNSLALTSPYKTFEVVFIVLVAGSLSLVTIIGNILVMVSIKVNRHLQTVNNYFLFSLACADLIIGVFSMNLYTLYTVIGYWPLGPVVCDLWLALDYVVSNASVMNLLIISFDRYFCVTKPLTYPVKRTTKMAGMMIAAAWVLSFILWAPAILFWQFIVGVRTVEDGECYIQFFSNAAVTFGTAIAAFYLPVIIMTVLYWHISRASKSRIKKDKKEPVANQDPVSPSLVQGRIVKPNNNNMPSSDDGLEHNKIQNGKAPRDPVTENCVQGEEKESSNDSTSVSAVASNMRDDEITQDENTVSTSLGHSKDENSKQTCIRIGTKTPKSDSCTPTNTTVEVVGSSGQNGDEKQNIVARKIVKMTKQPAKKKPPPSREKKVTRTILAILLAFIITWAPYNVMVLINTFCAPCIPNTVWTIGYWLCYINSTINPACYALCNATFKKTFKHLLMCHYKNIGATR
# [5] = target: Beta-1 adrenergic receptor (Homo sapiens, UniProt P08588); type: functional
# Chain of Beta-1 adrenergic receptor (P08588 whole entry): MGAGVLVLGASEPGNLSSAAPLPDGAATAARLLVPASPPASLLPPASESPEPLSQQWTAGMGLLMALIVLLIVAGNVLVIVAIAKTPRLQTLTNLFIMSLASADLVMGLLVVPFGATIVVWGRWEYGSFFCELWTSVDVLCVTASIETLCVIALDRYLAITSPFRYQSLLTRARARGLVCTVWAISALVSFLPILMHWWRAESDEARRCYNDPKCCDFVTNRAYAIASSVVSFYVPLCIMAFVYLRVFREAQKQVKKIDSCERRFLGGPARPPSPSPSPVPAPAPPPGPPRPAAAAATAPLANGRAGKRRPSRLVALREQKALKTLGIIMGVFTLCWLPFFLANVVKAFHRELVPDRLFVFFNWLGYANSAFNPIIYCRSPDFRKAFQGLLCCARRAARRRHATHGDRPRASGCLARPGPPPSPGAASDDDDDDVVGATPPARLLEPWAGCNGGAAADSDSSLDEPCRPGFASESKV
# Adenosine receptor A2a = Adenosine receptor A2a (Homo sapiens, UniProt P29274)
# Chain of Adenosine receptor A2a (P29274 whole entry): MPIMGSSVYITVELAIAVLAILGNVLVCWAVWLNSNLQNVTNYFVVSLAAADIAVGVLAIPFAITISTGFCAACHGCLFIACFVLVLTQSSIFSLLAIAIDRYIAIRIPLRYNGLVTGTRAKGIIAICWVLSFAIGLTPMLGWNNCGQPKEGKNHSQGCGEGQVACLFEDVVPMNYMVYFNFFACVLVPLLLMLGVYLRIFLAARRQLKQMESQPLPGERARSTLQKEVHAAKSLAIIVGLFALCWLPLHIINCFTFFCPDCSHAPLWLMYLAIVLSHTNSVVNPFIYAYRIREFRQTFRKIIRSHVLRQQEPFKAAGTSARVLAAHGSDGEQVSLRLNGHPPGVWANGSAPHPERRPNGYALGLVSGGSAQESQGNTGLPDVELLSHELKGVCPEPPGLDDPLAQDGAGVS
# [6] = target: Sodium-dependent noradrenaline transporter (Homo sapiens, UniProt P23975)
# Chain of Sodium-dependent noradrenaline transporter (P23975 whole entry): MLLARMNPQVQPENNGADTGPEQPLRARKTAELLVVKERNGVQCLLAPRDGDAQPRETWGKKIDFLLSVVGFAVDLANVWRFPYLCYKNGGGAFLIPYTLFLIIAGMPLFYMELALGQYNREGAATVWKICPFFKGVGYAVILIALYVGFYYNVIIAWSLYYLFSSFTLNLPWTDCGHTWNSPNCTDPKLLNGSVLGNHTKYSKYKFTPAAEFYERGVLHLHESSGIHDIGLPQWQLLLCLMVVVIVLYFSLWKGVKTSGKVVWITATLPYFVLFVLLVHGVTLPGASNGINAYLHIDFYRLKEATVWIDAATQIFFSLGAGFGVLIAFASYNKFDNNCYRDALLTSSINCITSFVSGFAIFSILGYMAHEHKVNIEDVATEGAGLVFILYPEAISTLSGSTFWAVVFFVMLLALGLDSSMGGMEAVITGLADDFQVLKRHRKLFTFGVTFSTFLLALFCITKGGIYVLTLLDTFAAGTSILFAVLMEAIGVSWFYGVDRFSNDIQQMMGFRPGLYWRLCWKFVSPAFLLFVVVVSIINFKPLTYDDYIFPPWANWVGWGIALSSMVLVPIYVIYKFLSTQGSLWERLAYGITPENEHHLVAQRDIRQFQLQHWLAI
# [7] = target: Sodium-dependent serotonin transporter (Homo sapiens, UniProt P31645)
# Chain of Sodium-dependent serotonin transporter (P31645 whole entry): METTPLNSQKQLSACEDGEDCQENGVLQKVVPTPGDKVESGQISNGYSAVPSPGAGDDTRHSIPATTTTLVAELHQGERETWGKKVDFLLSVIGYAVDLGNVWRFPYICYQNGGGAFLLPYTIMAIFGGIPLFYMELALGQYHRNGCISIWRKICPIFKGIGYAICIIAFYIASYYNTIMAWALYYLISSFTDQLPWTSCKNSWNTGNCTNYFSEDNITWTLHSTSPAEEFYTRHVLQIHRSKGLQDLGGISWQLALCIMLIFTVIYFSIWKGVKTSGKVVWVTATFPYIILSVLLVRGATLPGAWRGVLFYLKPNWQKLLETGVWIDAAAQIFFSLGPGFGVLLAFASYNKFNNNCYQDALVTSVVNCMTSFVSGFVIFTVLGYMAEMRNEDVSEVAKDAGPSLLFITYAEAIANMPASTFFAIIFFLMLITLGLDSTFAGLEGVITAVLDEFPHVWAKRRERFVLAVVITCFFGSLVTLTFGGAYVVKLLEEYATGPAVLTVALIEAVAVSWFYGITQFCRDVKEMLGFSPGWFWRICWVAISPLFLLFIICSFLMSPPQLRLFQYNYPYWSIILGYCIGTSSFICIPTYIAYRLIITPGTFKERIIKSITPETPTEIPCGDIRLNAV
# [8] = target: Voltage-gated inwardly rectifying potassium channel KCNH2 (Homo sapiens, UniProt Q12809); type: functional; conditions: read-out: AC50
# Mu-type opioid receptor = Mu-type opioid receptor (Homo sapiens, UniProt P35372); assay: biochemical; type: functional
# Chain of Mu-type opioid receptor (P35372 whole entry): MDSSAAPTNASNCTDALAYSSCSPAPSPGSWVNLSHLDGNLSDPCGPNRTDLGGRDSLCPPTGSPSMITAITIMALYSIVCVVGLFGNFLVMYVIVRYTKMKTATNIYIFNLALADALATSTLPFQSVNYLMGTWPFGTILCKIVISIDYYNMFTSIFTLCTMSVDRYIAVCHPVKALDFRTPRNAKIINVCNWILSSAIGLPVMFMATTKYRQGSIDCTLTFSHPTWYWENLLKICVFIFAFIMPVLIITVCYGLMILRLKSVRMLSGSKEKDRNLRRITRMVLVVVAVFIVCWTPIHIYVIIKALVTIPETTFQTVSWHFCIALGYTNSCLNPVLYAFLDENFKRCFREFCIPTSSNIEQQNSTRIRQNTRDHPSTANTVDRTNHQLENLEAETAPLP
# [9] = target: T5, 5-hydroxytryptamine receptor 1A (Homo sapiens, UniProt P08908); type: functional, cell-based
# T5 sequence (P08908 whole entry): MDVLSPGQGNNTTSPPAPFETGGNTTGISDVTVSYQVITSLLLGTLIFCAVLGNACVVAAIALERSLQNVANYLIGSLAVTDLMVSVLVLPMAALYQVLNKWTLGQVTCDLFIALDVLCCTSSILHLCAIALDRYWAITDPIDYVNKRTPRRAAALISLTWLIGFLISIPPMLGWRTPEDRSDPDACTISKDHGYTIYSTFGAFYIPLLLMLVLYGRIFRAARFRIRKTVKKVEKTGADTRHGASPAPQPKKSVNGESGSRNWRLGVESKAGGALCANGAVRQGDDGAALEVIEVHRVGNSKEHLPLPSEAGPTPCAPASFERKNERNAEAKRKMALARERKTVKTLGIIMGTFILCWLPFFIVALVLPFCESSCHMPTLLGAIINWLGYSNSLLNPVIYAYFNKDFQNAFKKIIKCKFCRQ
# [10] = target: cGMP-inhibited 3',5'-cyclic phosphodiesterase 3A (Homo sapiens, UniProt Q14432); type: functional
# Chain of cGMP-inhibited 3',5'-cyclic phosphodiesterase 3A (Q14432 whole entry): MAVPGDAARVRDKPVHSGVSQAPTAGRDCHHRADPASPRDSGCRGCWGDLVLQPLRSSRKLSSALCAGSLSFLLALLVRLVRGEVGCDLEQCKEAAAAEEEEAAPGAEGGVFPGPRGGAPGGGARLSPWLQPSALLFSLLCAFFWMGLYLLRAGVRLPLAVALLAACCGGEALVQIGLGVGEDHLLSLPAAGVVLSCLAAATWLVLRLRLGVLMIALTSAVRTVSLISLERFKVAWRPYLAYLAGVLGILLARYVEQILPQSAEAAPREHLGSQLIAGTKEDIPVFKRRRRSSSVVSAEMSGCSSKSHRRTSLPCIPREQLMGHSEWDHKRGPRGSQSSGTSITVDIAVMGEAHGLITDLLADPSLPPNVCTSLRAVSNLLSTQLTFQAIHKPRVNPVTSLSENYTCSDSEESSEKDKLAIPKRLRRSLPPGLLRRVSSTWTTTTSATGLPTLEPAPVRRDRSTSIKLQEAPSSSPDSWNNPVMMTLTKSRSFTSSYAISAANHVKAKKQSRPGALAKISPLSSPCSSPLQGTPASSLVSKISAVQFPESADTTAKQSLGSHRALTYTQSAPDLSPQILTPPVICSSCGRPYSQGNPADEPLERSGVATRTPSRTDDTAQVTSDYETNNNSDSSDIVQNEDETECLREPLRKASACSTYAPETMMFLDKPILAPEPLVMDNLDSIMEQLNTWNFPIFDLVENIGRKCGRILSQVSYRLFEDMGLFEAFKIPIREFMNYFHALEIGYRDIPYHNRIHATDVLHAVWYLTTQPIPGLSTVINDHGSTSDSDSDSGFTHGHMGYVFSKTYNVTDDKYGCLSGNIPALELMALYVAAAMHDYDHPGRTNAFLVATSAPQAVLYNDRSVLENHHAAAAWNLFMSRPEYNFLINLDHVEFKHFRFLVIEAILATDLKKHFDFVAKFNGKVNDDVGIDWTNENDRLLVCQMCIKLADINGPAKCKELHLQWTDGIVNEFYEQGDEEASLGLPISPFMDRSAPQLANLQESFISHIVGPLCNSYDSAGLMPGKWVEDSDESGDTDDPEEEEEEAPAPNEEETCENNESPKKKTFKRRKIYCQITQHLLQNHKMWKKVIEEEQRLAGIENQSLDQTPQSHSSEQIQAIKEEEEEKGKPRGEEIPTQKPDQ
# Further: assay procedure not described here.
SMILES,AC50 [1] [µM],AC50 (D(3) dopamine receptor) [µM],AC50 (Endothelin-1 receptor) [µM],AC50 [2] [µM],AC50 (Adenosine receptor A3) [µM],AC50 [3] [µM],AC50 [4] [µM],AC50 [5] [µM],AC50 (Adenosine receptor A2a) [µM],AC50 [6],AC50 [7] [µM],AC50 [8] [µM],AC50 (Mu-type opioid receptor) [µM],AC50 [9] [µM],AC50 [10] [µM]
CN(c1nccc(=O)[nH]1)C1CCN(c2nc3ccccc3n2Cc2ccc(F)cc2)CC1 [MIZOLASTINE],> 30,> 30,> 30,13,> 30,> 30,> 30,> 30,> 30,> 30 µM,> 30,3.34,> 30,> 30,6.1
CC[N+]1(C)CCCC(OC(=O)C(O)(c2ccccc2)c2ccccc2)C1 (stereo not given) [PIPENZOLATE],> 30,> 30,> 30,> 30,> 30,> 30,> 30,> 30,> 30,> 30 µM,> 30,0.97,> 30,> 30,> 30
CC(=O)c1ccc2c(c1)N(CCCN1CCC(CCO)CC1)c1ccccc1S2 [PIPERACETAZINE],> 30,0.017,> 30,> 30,> 30,> 30,> 30,> 30,> 30,1.8 µM,1.3,0.5,> 30,> 30,> 10
Cc1ccc(=O)n(-c2ccccc2)c1 [PIRFENIDONE],> 30,> 30,> 30,> 30,> 30,> 30,> 30,> 30,> 30,> 30 µM,> 30,> 30,> 30,> 30,> 30
CCN(CC)CC(=O)Oc1ccc(NC(C)=O)cc1 [PROPACETAMOL],> 30,> 30,> 30,> 30,> 30,> 30,> 30,> 30,> 30,> 30 µM,> 30,> 30,> 30,> 30,> 30
CCCOC(C(=O)OC1CCN(C)CC1)(c1ccccc1)c1ccccc1 [PROPIVERINE],> 30,2.5,> 30,> 30,> 30,> 30,> 30,> 30,> 30,> 30 µM,> 30,3.2,3.6,> 30,> 30
Cc1ccc2c(-c3ccccc3)nc(=O)n(C(C)C)c2c1 [PROQUAZONE],> 30,> 30,> 30,0.81,23,> 30,> 30,> 30,> 30,> 30 µM,> 30,> 30,> 30,> 30,> 30
CC(NCCc1ccc(O)cc1)C(O)c1ccc(O)cc1 (stereo not given) [RITODRINE],> 30,> 30,> 30,> 30,> 30,> 30,> 30,17,> 30,23 µM and 37.6 µM,16.3,> 30,8.1,> 30,> 30
COc1c(O[C@@H]2O[C@H](CO)[C@@H](O)[C@H](O)[C@H]2O)cc2c(c1OC)-c1ccc(SC)c(=O)cc1[C@@H](NC(C)=O)CC2 [THIOCOLCHICOSIDE],> 30,> 30,> 30,> 30,> 30,> 30,> 30,> 30,> 30,> 30 µM,> 30,> 30,> 30,> 30,> 30
